# Data as given in article PMC8957246, “Synthesis and diverse biological activity profile of triethylammonium isatin-3-hydrazones” (ADMET & DMPK, 2022).
# Structures can show the parent of a compound that is named as a salt. Marks after values point to notes of the source that are not given here.
# Assays:
# [1] = system: Micrococcus luteus B-109; test: Bactericidal activity, agar diffusion, M. luteus; type: cell-based
# Text: (§1) Plant pathogenic bacterial strains Micrococcus luteus B-109, Pectobacterium atrosepticum 1043, Pectobacterium carotovorum subsp. carotovorum MI, Pseudomonas fluorescens EL-2.1, and Xanthomonas campestris B-610 and fungal strain Fusarium oxysporum IBPPM 543 were obtained from the specialized scientific culture collection of IBPPM RAS (WFCC no. 975, WDCM no. 1021) (CM IBPPM). Pathogenic fungus Phytophthora cactorum VKM F-985 provided by the All-Russian Collection of Microorganisms (VKM) and deposited at A.E. Favorsky Irkutsk Institute of Chemistry, SB RAS, was also used as test organism. Bacteria M. luteus, P. carotovorum subsp. carotovorum, P. atrosepticum, and Ps. fluorescens were grown in meat-peptone medium (BP), and X. campestris was grown in the medium with glucose, yeast extract, and calcium carbonate (GYCa). Solid media contained Bacto agar (18 g/L); pH was adjusted to 7.2-7.4. All bacterial cultures were grown at 28°C. The mycelial cultures of F. oxysporum and P. cactorum were grown on a glucose-peptone-yeast (GPY) nutrient medium at 27 °C. For inoculum preparation, both fungal strains were initially grown on the agar GPY in Petri dishes and then transferred into the seed medium by punching out 5 mm of the agar plate culture with a self-designed cutter.
# (§2) Antibacterial and antifungal activities of the compounds were explored using the agar diffusion method and the technique of a phytopathogen radial growth inhibition. Method of diffusion in agar (measuring the diameter of growth inhibition zones) was used for determining the bactericidal activity. The 6-mm wells were made in ager medium (GYCa for Xanthomonas campestris or BP for other bacteria). Bacterial suspensions were distributed over the agar surface, and the tested compound's solution (150 μl) was added to each well. The width of growth inhibition zones around the wells was determined after incubation for 36-40 h.
# (§3) The solutions of tested compounds were prepared with a concentration of 2 mmol/l (stock solution). For comparison, test compounds were also commonly applied disinfecting agents and antibiotics.
# [2] = system: Pseudomonas fluorescens EL-2.1; test: Bactericidal activity, agar diffusion, Ps. fluorescens; type: cell-based
# Text: as §1, §2, §3
# [3] = system: Xanthomonas campestris B-610; test: Bactericidal activity, agar diffusion, X. campestris; type: cell-based
# Text: as §1, §2, §3
# [4] = system: Pectobacterium carotovorum subsp. carotovorum MI; test: Bactericidal activity, agar diffusion, P. carotovorum; type: cell-based
# Text: as §1, §2, §3
# [5] = system: Pectobacterium atrosepticum 1043; test: Bactericidal activity, agar diffusion, P. atrosepticum; type: cell-based
# Text: as §1, §2, §3
# [6] = system: Staphylococcus aureus ATCC 6538P FDA 209P; test: Antimicrobial activity, serial dilution (MIC/MBC), Sa; type: cell-based; conditions: Staphylococcus aureus
# Description: (§4) The antimicrobial activity of the test compounds was determined by the serial dilution technique in Muller Hinton Broth 2 and in Sabouradu broth for fungi. The cultures used for testing included Gram-positive bacteria: Staphylococcus aureus ATCC 6538P FDA 209P, Bacillus cereus ATCC 10702 NCTC 8035, Enterococcus faecalis ATCC 29212; Gram-negative bacteria: Escherichia coli ATCC 25922, Pseudomonas aeruginosa ATCC 9027, and fungi: Trichophyton mentagrophytes var. gypseum 1773, and Candida albicans ATCC 10231; methicillin-resistant strains of S. aureus (MRSA) was obtained from hospital patients with chronic tonsillitis in the Republican Clinical Hospital (Kazan, Russia). The bacterial load was 3.0 × 10^5 cfu/ml. The fungi load was 2.0 × 10^3 cfu/ml. The results were recorded every 24 h for 5-7 days. Cultures were incubated at 37 °C. The experiment was repeated three times. […] The minimum inhibitory concentration (MIC) was defined as the minimum concentration of a compound that inhibits the growth of the corresponding test microorganism. The growth of bacteria, as well as the absence of the growth due to the bacteriostatic action of compounds, were recorded.
# (§5) Synthesized compounds were further evaluated for antimicrobial activity against test microorganisms: Staphylococcus aureus ATCC 209p (Sa), Bacillus cereus ATCC 8035 (Bc), Escherichia coli CDC F-50 (Ec), Enterococcus faecalis (Ef), Pseudomonas aeruginosa ATCC 9027, Aspergillus niger BKMF-1119, Trichophyton mentagrophytes var. gypseum 1773, and Candida albicans 855-653 including methicillin-resistant strains of S. aureus (MRSA 1 and MRSA 2). The minimum inhibitory (MIC) and minimum bactericidal (MBC) concentrations of ammonium salts were determined against these pathogens (Table 1). Due to the lack of activity of compounds 3a-g against Gram-negative bacterial strains and some fungi, the corresponding data are not shown.
# [7] = system: Enterococcus faecalis ATCC 29212; test: Antimicrobial activity, serial dilution (MIC/MBC), Ef; type: cell-based; conditions: ATCC29212
# Description: as §4, §5
# [8] = system: Bacillus cereus ATCC 10702 NCTC 8035; test: Antimicrobial activity, serial dilution (MIC/MBC), Bc; type: cell-based; conditions: Bacillus cereus
# Description: as §4, §5
# [9] = system: methicillin-resistant strains of S. aureus (MRSA-2); test: Antimicrobial activity, serial dilution (MIC/MBC), MRSA-2; type: cell-based; conditions: Staphylococcus aureus
# Description: as §4, §5
# [10] = system: methicillin-resistant strains of S. aureus (MRSA-1); test: Antimicrobial activity, serial dilution (MIC/MBC), MRSA-1; type: cell-based; conditions: Staphylococcus aureus
# Description: as §4, §5
# [11] = system: activated partial thromboplastin time (intrinsic coagulation pathway); test: Anticoagulant activity, clotting test APTT; parameters: species or system human; conditions: concentration 5×10^–4 g/mL; median (25-75 percentiles)
# Description: (§6) The in vitro experiments were performed using the blood of healthy male donors aged 18-24 years (total 54 donors). The study was approved by the Ethics Committee of Federal State Budgetary Educational Institution of Higher Education at the Bashkir State Medical University of the Ministry of Health of Russian Federation (No.2 dated 17.10.2012). Informed consent was obtained from all participants before blood sampling. The blood was collected from the cubital vein using the system of vacuum blood collection BD Vacutainer® (Becton, Dickinson and Company, USA). A 3.8 % sodium citrate solution in a 9:1 ratio was used as a venous blood stabiliser. The study of the effect on platelet aggregation was performed using the Born method using the aggregometer «AT-02» (SPC Medtech, Russia). The assessment of antiplatelet activity of the studied compounds and reference preparations was started with the final concentration of 2×10^–3 mol/L. Adenosine diphosphate (ADP; 20 μg/mL) and collagen (5 mg/mL) manufactured by Tehnologia-Standart Company, Russia, were used as inducers of aggregation. The study on the anticoagulant activity was performed by standard recognised clotting tests using the optical two-channel automatic analyser of blood coagulation Solar CGL 2110 (CJSC SOLAR, Belarus). The following parameters were studied: activated partial thromboplastin time (APTT), prothrombin time (PT) and fibrinogen concentrations according to the Clauss method. The determination of anticoagulant activity of the studied compounds and reference preparation was performed in a concentration of 5×10^–4 g/mL using the reagents manufactured by Tehnologia-Standart Company (Barnaul, Russia). The results of the study were processed using the statistical package Statistica 10.0 (StatSoft Inc, USA). The Shapiro–Wilk’s test was used to check the normality of actual data distribution. The form of distribution of the data obtained differed from the normal one; therefore, non-parametric methods were used for further analysis. The data were presented as medians and 25 and 75 percentiles. Analysis of variance was conducted using Kruskal–Wallis test. A p value of 0.05 was considered statistically significant.
# [12] = system: Phytophthora cactorum VKM F-985; test: Fungicidal activity, radial growth inhibition, P. cactorum; type: cell-based; conditions: for Inhibition value, I (%): C 10 μg/mL
# Text: as §1
# (§7) For the fungicidal activity analysis, radial growth (colony diameters) of the fungi on a solid medium in the absence and in the presence of the compounds 3a,c-g solutions at various concentrations were compared. The method consisted of the following: sterile, melted and then cooled to about 60°C GPY agar medium (20.0 ml) was mixed with the precisely measured volumes of the solutions under question, and poured into a sterile Petri dish (90 mm i.d.). After solidification of GPY agar, the media were inoculated by the fungus using 10-day-old cultures of F. oxysporum or P. cactorum. The inoculation was done by transferring a 5-mm (i.d.) GPY-agar block covered with mycelium to the center of the Petri dish followed by incubation in a thermostat at 27°C. The fungicidal effect was scored by the size of mycelium colony on a Petri dish compared to the control without fungicidal admixtures to GPY agar. Each treatment was performed in at least four replicates in two independent experiments. The observation period ended when the control Petri dish was filled with mycelium (usually after 12 days). The inhibition of the phytopathogen colony growth by the compounds 3a,c-g or fludioxonil solutions was calculated as a percentage by which the mycelium radial propagation was decreased compared to the unaffected control, the latter was taken as 100 % of growth (or zero percent of inhibition). The EC50 value was calculated as the compound concentration at which the radial growth of the fungus colony was decreased by 50 % relative to the non-fungicidal control, according to the formula EC50 = 50C/I based on the approach developed e.g., in [34, 35].
# as §3
# [13] = system: Fusarium oxysporum IBPPM 543; test: Fungicidal activity, radial growth inhibition, F. oxysporum; type: cell-based; conditions: for Inhibition value, I (%): C 10 μg/mL
# Text: as §1, §7, §3
# [14] = system: platelets (collagen-induced aggregation); test: Platelet aggregation (Born method), collagen-induced; type: cell-based; conditions: Homo sapiens, collagen 5 mg/mL, final concentration 2×10^–3 mol/L, median (25-75 percentiles), read-out: Platelets aggregation, % of control, Collagen
# Description: as §6
# [15] = system: platelets (ADP-induced aggregation); test: Platelet aggregation (Born method), ADP-induced; type: cell-based; conditions: Homo sapiens, ADP 20 μg/mL, final concentration 2×10^–3 mol/L, median (25-75 percentiles), read-out: Platelets aggregation, % of control, ADP
# Description: as §6
compound,measurement,setting,value
"N=C(NCCCCCCNC(=N)NC(=N)Nc1ccc(Cl)cc1)NC(=N)Nc1ccc(Cl)cc1 [Chlorohexidin, reference compound]",width of the inhibition zone,[1]; 500 μg/mL,5 mm
same,width of the inhibition zone,[2]; 500 μg/mL,4 mm
same,width of the inhibition zone,[3]; 500 μg/mL,5 mm
same,width of the inhibition zone,[4]; 500 μg/mL,5 mm
same,width of the inhibition zone,[5]; 500 μg/mL,4 mm
"CC[N+](CC)(CC)CC(=O)N/N=C1\C(=O)N(Cc2cc(C(C)(C)C)c(O)c(C(C)(C)C)c2)c2c(Br)cc(Cl)cc21 (as salt: bromide) [Compound 3g, 2-(2-(1-(3,5-Di-tert-butyl-4-hydroxybenzyl)-5-chloro-7-bromo-2-oxoindolin-3-ylidene)hydrazinyl)-N,N,N-triethyl-2-oxoethanammonium bromide]",melting point,,177 °C
"[Na+].[O-]Cl [sodium hypochlorite, reference compound]",width of the inhibition zone,[1]; 1000 μg/mL,2.5 mm
same,width of the inhibition zone,[2]; 1000 μg/mL,4 mm
same,width of the inhibition zone,[3]; 1000 μg/mL,4 mm
same,width of the inhibition zone,[4]; 1000 μg/mL,3 mm
same,width of the inhibition zone,[5]; 1000 μg/mL,4 mm
"CC[N+](CC)(CC)CC(=O)N/N=C1\C(=O)N(Cc2cc(C(C)(C)C)c(O)c(C(C)(C)C)c2)c2ccc([N+](=O)[O-])cc21 (as salt: bromide) [Compound 3f, 2-(2-(1-(3,5-Di-tert-butyl-4-hydroxybenzyl)-5-nitro-2-oxoindolin-3-ylidene)hydrazinyl)-N,N,N-triethyl-2-oxoethanammonium bromide]",melting point,,176 °C
"CCn1cc(C(=O)O)c(=O)c2cc(F)c(N3CCNCC3)cc21 [Norfloxacin, reference compound]",zone of inhibition at 500 µg/mL,"[1]; Micrococcus luteus, B109, 500 μg/mL, read-out: width of the inhibition zone",7 mm
same,MIC,[6],7.5 ± 0.5 µM
same,MBC,[6]; read-out: MBC (converted),7.5 ± 0.6 µM
same,MBC,[7],7.5 ± 0.6 µM
same,MIC,[7],7.5 ± 0.5 µM
same,zone of inhibition at 500 µg/mL,"[2]; Pseudomonas fluorescens, EL2.1, 500 μg/mL, read-out: width of the inhibition zone",8 mm
same,MBC,[8],24.4 ± 2.1 µM
same,MIC,[8]; read-out: MIC,24.4 ± 2.1 µM
same,zone of inhibition at 500 µg/mL,"[3]; Xanthomonas campestris, B610, read-out: width of the inhibition zone",7 mm
same,MIC,[9],30 ± 2.6 µM
same,MIC,[10],391 ± 30 µM
same,zone of inhibition at 500 µg/mL,"[4]; Pectobacterium carotovorum, 500 μg/mL, read-out: width of the inhibition zone",8 mm
same,zone of inhibition at 500 µg/mL,"[5]; Pectobacterium atrosepticum, 1043, 500 μg/mL, read-out: width of the inhibition zone",7 mm
"CCc1cccc2c1N(Cc1cc(C(C)(C)C)c(O)c(C(C)(C)C)c1)C(=O)/C2=N\NC(=O)C[N+](CC)(CC)CC (as salt: bromide) [Compound 3c, 2-(2-(1-(3,5-Di-tert-butyl-4-hydroxybenzyl)-7-ethyl-2-oxoindolin-3-ylidene)hydrazinyl)-N,N,N-triethyl-2-oxoethanammonium bromide]",melting point,,163 °C
"CC[N+](CC)(CC)CC(=O)N/N=C1\C(=O)N(Cc2cc(C(C)(C)C)c(O)c(C(C)(C)C)c2)c2ccccc21 (as salt: bromide) [Compound 3a, 2-(2-(1-(3,5-Di-tert-butyl-4-hydroxybenzyl)-2-oxoindolin-3-ylidene)hydrazinyl)-N,N,N-triethyl-2-oxoethanammonium bromide]",melting point,,212 °C
Heparin sodium [reference compound],"APTT, % of control",[11],+20.3 (19.7-21.4) ^** % of control
"N#Cc1c[nH]cc1-c1cccc2c1OC(F)(F)O2 [Fludioxonil, reference compound]","Inhibition value, I (%)",[12]; age of the fungus 3 days,46%
same,"Inhibition value, I (%)",[12]; age of the fungus 5 days,38%
same,"Inhibition value, I (%)",[12]; age of the fungus 7 days,18%
same,"Inhibition value, I (%)",[12]; age of the fungus 9 days,12%
same,"Inhibition value, I (%)",[12]; age of the fungus 12 days,9%
same,EC50,"[12]; Phytophthora cactorum, 168 h, read-out: EC50, μg/mL at day 7",27.8 µg/mL
same,"Inhibition value, I (%)",[13]; age of the fungus 3 days,38%
same,"Inhibition value, I (%)",[13]; age of the fungus 5 days,23%
same,"Inhibition value, I (%)",[13]; age of the fungus 7 days,6%
same,"Inhibition value, I (%)",[13]; age of the fungus 9 days,4%
same,EC50,"[13]; Fusarium oxysporum, IBPPM543, 168 h, read-out: EC50, μg/mL at day 7",83.3 µg/mL
"CC(=O)Oc1ccccc1C(=O)O [Acetylsalicylic acid, reference compound]",inhibition at 2000 µM,[14],14.7%
same,inhibition at 2000 µM,[15],13.7%
